Experimental data: article PMC5218480 (PLoS ONE, 2017)

System: MV-4-11 cells
Experiment: Gene expression microarray analysis (Affymetrix PrimeView) and GSEA
Format: cell-based, human
Design: RFU PODN (11730768_x_at) / Fold change /veh PODN (11730768_x_at) / RFU LINC00158 (11744669_a_at) / Fold change /veh LINC00158 (11744669_a_at) / RFU DUSP10 (11751237_a_at) / Fold change /veh DUSP10 (11751237_a_at) / RFU ID3 (11757404_x_at) / Fold change /veh ID3 (11757404_x_at) / RFU PLEKHG5 (11737974_s_at) / Fold change /veh PLEKHG5 (11737974_s_at) / RFU LRRC4B (11730491_at) / Fold change /veh LRRC4B (11730491_at) / RFU GIMAP4 (11747438_a_at) / Fold change /veh GIMAP4 (11747438_a_at) / RFU KRT8 (11758183_x_at) / Fold change /veh KRT8 (11758183_x_at) / RFU CNN1 (11734310_a_at) / Fold change /veh CNN1 (11734310_a_at) / RFU VPS37D (11726825_at) / Fold change /veh VPS37D (11726825_at) / RFU C10orf10 (11716522_x_at) / Fold change /veh C10orf10 (11716522_x_at) / RFU KIR2DL2 /// KIR2DL4 /// KIR2DL5A /// KIR2DL5B /// KIR2DS1 /// KIR2DS2 /// KIR2DS3 /// KIR2DS4 /// KIR3DL3 /// KIR3DL3 /// KIR3DS1 (11738374_at) / Fold change /veh KIR2DL2 /// KIR2DL4 /// KIR2DL5A /// KIR2DL5B /// KIR2DS1 /// KIR2DS2 /// KIR2DS3 /// KIR2DS4 /// KIR3DL3 /// KIR3DL3 /// KIR3DS1 (11738374_at) / RFU C1QL1 (11718748_at) / Fold change /veh C1QL1 (11718748_at) / RFU TMPRSS4 (11747572_a_at) / Fold change /veh TMPRSS4 (11747572_a_at) / RFU HAMP (11756126_x_at) / Fold change /veh HAMP (11756126_x_at) / RFU RNFT2 (11725882_a_at) / Fold change /veh RNFT2 (11725882_a_at) / RFU NR4A2 (11747474_a_at) / Fold change /veh NR4A2 (11747474_a_at) / RFU ABCC12 (11746883_a_at) / Fold change /veh ABCC12 (11746883_a_at) / RFU TMEM136 (11760407_x_at) / Fold change /veh TMEM136 (11760407_x_at) / RFU CLDN22 /// WWC2 (11732394_at) / Fold change /veh CLDN22 /// WWC2 (11732394_at) / RFU HLA-DPB1 (11760878_x_at) / Fold change /veh HLA-DPB1 (11760878_x_at) / RFU SPINT1 (11716480_a_at) / Fold change /veh SPINT1 (11716480_a_at) / RFU GAP43 (11754022_s_at) / Fold change /veh GAP43 (11754022_s_at) / RFU A4GNT (11735810_at) / Fold change /veh A4GNT (11735810_at) / RFU PRB3 (11715151_x_at) / Fold change /veh PRB3 (11715151_x_at) / RFU TUBB4B (11761932_at) / Fold change /veh TUBB4B (11761932_at) / RFU CAPN14 (11732068_a_at) / Fold change /veh CAPN14 (11732068_a_at) / RFU TMCC2 (11721928_a_at) / Fold change /veh TMCC2 (11721928_a_at) / RFU IRGQ (11745062_a_at) / Fold change /veh IRGQ (11745062_a_at) / RFU FAM174B (11720279_a_at) / Fold change /veh FAM174B (11720279_a_at) / RFU TMPRSS4 (11748680_a_at) / Fold change /veh TMPRSS4 (11748680_a_at) / RFU FAM212B (11763350_a_at) / Fold change /veh FAM212B (11763350_a_at) / RFU PLEKHG5 (11743358_a_at) / Fold change /veh PLEKHG5 (11743358_a_at) / RFU ZSCAN30 (11745921_a_at) / Fold change /veh ZSCAN30 (11745921_a_at) / RFU CMKLR1 (11741424_a_at) / Fold change /veh CMKLR1 (11741424_a_at) / RFU LOC101060620 /// MAPK8IP1 (11723275_at) / Fold change /veh LOC101060620 /// MAPK8IP1 (11723275_at) / RFU SPTSSB (11747773_x_at) / Fold change /veh SPTSSB (11747773_x_at) / RFU PRSS12 (11739890_at) / Fold change /veh PRSS12 (11739890_at) / RFU BIN1 (11741810_x_at) / Fold change /veh BIN1 (11741810_x_at) / RFU WNT11 (11732464_a_at) / Fold change /veh WNT11 (11732464_a_at) / RFU C10orf10 (11716521_a_at) / Fold change /veh C10orf10 (11716521_a_at) / RFU C5orf56 (11738089_at) / Fold change /veh C5orf56 (11738089_at) / RFU CYB561 (11721691_x_at) / Fold change /veh CYB561 (11721691_x_at) / RFU ANKRD19P (11752326_a_at) / Fold change /veh ANKRD19P (11752326_a_at) / RFU OR2T12 /// OR2T33 /// OR2T8 (11738714_s_at) / Fold change /veh OR2T12 /// OR2T33 /// OR2T8 (11738714_s_at) / RFU VCAN (11748164_a_at) / Fold change /veh VCAN (11748164_a_at) / RFU JSRP1 (11732532_at) / Fold change /veh JSRP1 (11732532_at) / RFU KRTAP10-11 (11738290_x_at) / Fold change /veh KRTAP10-11 (11738290_x_at) / RFU MYO3A (11730013_a_at) / Fold change /veh MYO3A (11730013_a_at) / RFU EBF3 (11725865_a_at) / Fold change /veh EBF3 (11725865_a_at) / RFU CAMK2N1 (11719241_x_at) / Fold change /veh CAMK2N1 (11719241_x_at) / RFU C5orf56 (11738088_a_at) / Fold change /veh C5orf56 (11738088_a_at) / RFU OLFML3 (11715873_a_at) / Fold change /veh OLFML3 (11715873_a_at) / RFU LOC100653217 /// NTM (11731650_a_at) / Fold change /veh LOC100653217 /// NTM (11731650_a_at) / RFU MAPK11 (11762145_a_at) / Fold change /veh MAPK11 (11762145_a_at) / RFU FIZ1 (11724087_x_at) / Fold change /veh FIZ1 (11724087_x_at) / RFU OASL (11726364_x_at) / Fold change /veh OASL (11726364_x_at) / RFU SOX15 (11748057_x_at) / Fold change /veh SOX15 (11748057_x_at) / RFU CD79A (11719716_a_at) / Fold change /veh CD79A (11719716_a_at) / RFU HIST1H1D (11736915_at) / Fold change /veh HIST1H1D (11736915_at) / RFU CASKIN2 (11723855_a_at) / Fold change /veh CASKIN2 (11723855_a_at) / RFU LOC730098 (11760151_x_at) / Fold change /veh LOC730098 (11760151_x_at) / RFU OR4N2 (11742367_at) / Fold change /veh OR4N2 (11742367_at) / RFU PRRT2 (11749266_a_at) / Fold change /veh PRRT2 (11749266_a_at) / RFU SNX32 (11753110_a_at) / Fold change /veh SNX32 (11753110_a_at) / RFU CDHR5 (11726645_a_at) / Fold change /veh CDHR5 (11726645_a_at) / RFU RCAN1 (11760418_a_at) / Fold change /veh RCAN1 (11760418_a_at) / RFU FAM167A (11723789_a_at) / Fold change /veh FAM167A (11723789_a_at) / RFU FAM26E (11764081_at) / Fold change /veh FAM26E (11764081_at) / RFU ISYNA1 (11749810_s_at) / Fold change /veh ISYNA1 (11749810_s_at) / RFU ACY1 (11761880_at) / Fold change /veh ACY1 (11761880_at) / RFU 11764098_at / Fold change /veh 11764098_at / RFU SAMD14 (11745864_x_at) / Fold change /veh SAMD14 (11745864_x_at) / RFU NPB (11741838_a_at) / Fold change /veh NPB (11741838_a_at) / RFU TMPRSS6 (11731388_a_at) / Fold change /veh TMPRSS6 (11731388_a_at) / RFU KRTAP10-2 (11738614_at) / Fold change /veh KRTAP10-2 (11738614_at) / RFU ARHGAP8 /// PRR5-ARHGAP8 (11727945_x_at) / Fold change /veh ARHGAP8 /// PRR5-ARHGAP8 (11727945_x_at) / RFU KRTAP5-7 /// NADSYN1 (11734609_at) / Fold change /veh KRTAP5-7 /// NADSYN1 (11734609_at) / RFU RASL12 (11751679_a_at) / Fold change /veh RASL12 (11751679_a_at) / RFU CDKN2B (11736163_a_at) / Fold change /veh CDKN2B (11736163_a_at) / RFU PRF1 (11729649_at) / Fold change /veh PRF1 (11729649_at) / RFU, ZNF638 /// ZNF638-IT1 / Fold change vs veh, ZNF638 /// ZNF638-IT1 / RFU, PANK3 / Fold change vs veh, PANK3 / RFU, SH3YL1 / Fold change vs veh, SH3YL1 / RFU, ZEB2 / Fold change vs veh, ZEB2 / RFU, NRIP1 / Fold change vs veh, NRIP1 / RFU, PTTG1IP / Fold change vs veh, PTTG1IP / RFU, CAPN2 / Fold change vs veh, CAPN2 / RFU, MED14 / Fold change vs veh, MED14 / RFU, SNORA58 / Fold change vs veh, SNORA58 / RFU, C1orf63 / Fold change vs veh, C1orf63 / RFU, LRRFIP1 / Fold change vs veh, LRRFIP1 / RFU, NDUFAF7 / Fold change vs veh, NDUFAF7 / RFU, SLC12A2 / Fold change vs veh, SLC12A2 / RFU, IBTK / Fold change vs veh, IBTK / RFU, ESF1 / Fold change vs veh, ESF1 / Fold change vs veh, TMEM50B / RFU, TAOK1 / Fold change vs veh, TAOK1 / RFU, ACBD3 / Fold change vs veh, ACBD3 / RFU, TMA16 / Fold change vs veh, TMA16 / RFU, RWDD3 / Fold change vs veh, RWDD3 / RFU, BCAT1 / Fold change vs veh, BCAT1 / RFU, EDEM3 / Fold change vs veh, EDEM3 / RFU, TMEM33 / Fold change vs veh, TMEM33 / RFU, WDR75 / Fold change vs veh, WDR75 / RFU, AHCTF1 / Fold change vs veh, AHCTF1 / RFU, TFRC / Fold change vs veh, TFRC / RFU, ZDHHC17 / Fold change vs veh, ZDHHC17 / RFU, NOM1 / Fold change vs veh, NOM1 / RFU, ARL8B / Fold change vs veh, ARL8B / RFU, ZBTB11 / Fold change vs veh, ZBTB11 / RFU, TAMM41 / Fold change vs veh, TAMM41 / RFU, KIAA1704 /// LOC100996395 / Fold change vs veh, KIAA1704 /// LOC100996395 / RFU, ING1 / Fold change vs veh, ING1 / RFU, TRMT61B / Fold change vs veh, TRMT61B / RFU, FUBP3 / Fold change vs veh, FUBP3 / RFU, TP53 / Fold change vs veh, TP53 / RFU, TNKS2 / Fold change vs veh, TNKS2 / RFU, ZFP14 / Fold change vs veh, ZFP14 / RFU, ACTR2 / Fold change vs veh, ACTR2 / RFU, PPP3R1 / Fold change vs veh, PPP3R1 / RFU, PIK3R1 / Fold change vs veh, PIK3R1 / RFU, HNRNPA1 / Fold change vs veh, HNRNPA1 / RFU, RNF170 / Fold change vs veh, RNF170 / RFU, ZNF28 / Fold change vs veh, ZNF28 / RFU, RNGTT / Fold change vs veh, RNGTT / RFU, OGT / Fold change vs veh, OGT / RFU, BRD1 / Fold change vs veh, BRD1 / RFU, MARS / Fold change vs veh, MARS / RFU, ZNF655 / Fold change vs veh, ZNF655 / RFU, FAHD1 / Fold change vs veh, FAHD1 / RFU, BDP1 / Fold change vs veh, BDP1 / RFU, LRRCC1 / Fold change vs veh, LRRCC1 / RFU, ARID1A / Fold change vs veh, ARID1A / RFU, ZNF146 / Fold change vs veh, ZNF146 / RFU, ZNF330 / Fold change vs veh, ZNF330 / RFU, GPN3 / Fold change vs veh, GPN3 / RFU, C9orf123 / Fold change vs veh, C9orf123 / RFU, N4BP2L2 / Fold change vs veh, N4BP2L2 / RFU, ARFIP1 / Fold change vs veh, ARFIP1 / RFU, FAM179B / Fold change vs veh, FAM179B / RFU, BCL10 / Fold change vs veh, BCL10 / RFU, UHRF1BP1L / Fold change vs veh, UHRF1BP1L / RFU, BET1 / Fold change vs veh, BET1 / RFU, CNOT2 / Fold change vs veh, CNOT2 / RFU, ZNF268 / Fold change vs veh, ZNF268 / Fold change vs veh, ZNF507 / RFU, DGCR2 / Fold change vs veh, DGCR2 / RFU, WDSUB1 / Fold change vs veh, WDSUB1 / Fold change vs veh, HSP90B1 /// MIR3652 / RFU, ADSS / Fold change vs veh, ADSS / RFU, GK / Fold change vs veh, GK / RFU, ZNF148 / Fold change vs veh, ZNF148 / RFU, TAF9 / Fold change vs veh, TAF9 / RFU, SLC1A5 / Fold change vs veh, SLC1A5 / RFU, SLMO2 / Fold change vs veh, SLMO2 / RFU, ABCC4 / Fold change vs veh, ABCC4 / RFU, LOC101060439 /// RAP1B / Fold change vs veh, LOC101060439 /// RAP1B / RFU, RFX7 / Fold change vs veh, RFX7 / RFU, GTPBP10 / Fold change vs veh, GTPBP10 / RFU, CNEP1R1 / Fold change vs veh, CNEP1R1 / RFU, BIVM-ERCC5 /// ERCC5 / Fold change vs veh, BIVM-ERCC5 /// ERCC5 / RFU, ILF3 / Fold change vs veh, ILF3 / RFU 11762660_at / Fold change /veh 11762660_at / RFU VCAN (11757783_s_at) / Fold change /veh VCAN (11757783_s_at) / RFU DDX43 (11728927_at) / Fold change /veh DDX43 (11728927_at) / RFU KRT8 (11758188_x_at) / Fold change /veh KRT8 (11758188_x_at) / RFU NKD1 (11759106_at) / Fold change /veh NKD1 (11759106_at) / RFU SRD5A1 (11742802_a_at) / Fold change /veh SRD5A1 (11742802_a_at) / RFU TPSAB1 /// TPSB2 (11721975_s_at) / Fold change /veh TPSAB1 /// TPSB2 (11721975_s_at) / RFU GSTM3 (11746129_a_at) / Fold change /veh GSTM3 (11746129_a_at) / RFU IL23R (11737362_x_at) / Fold change /veh IL23R (11737362_x_at) / RFU TMEM51 (11727254_a_at) / Fold change /veh TMEM51 (11727254_a_at) / RFU PIWIL2 (11732686_x_at) / Fold change /veh PIWIL2 (11732686_x_at) / RFU ORM1 (11744905_x_at) / Fold change /veh ORM1 (11744905_x_at) / RFU CCDC152 (11743942_at) / Fold change /veh CCDC152 (11743942_at) / RFU ECM1 (11717891_a_at) / Fold change /veh ECM1 (11717891_a_at) / RFU IL23R (11748794_a_at) / Fold change /veh IL23R (11748794_a_at) / RFU TNFAIP8L3 (11732012_x_at) / Fold change /veh TNFAIP8L3 (11732012_x_at) / RFU MBOAT4 (11741988_at) / Fold change /veh MBOAT4 (11741988_at) / RFU 11764193_at / Fold change /veh 11764193_at / RFU TMEM53 (11763286_at) / Fold change /veh TMEM53 (11763286_at) / RFU MAGEB2 (11727129_at) / Fold change /veh MAGEB2 (11727129_at) / RFU TMEM200A (11744735_a_at) / Fold change /veh TMEM200A (11744735_a_at) / RFU CCDC152 (11751479_a_at) / Fold change /veh CCDC152 (11751479_a_at) / RFU FAM211A (11726209_a_at) / Fold change /veh FAM211A (11726209_a_at) / RFU RGS16 (11746705_a_at) / Fold change /veh RGS16 (11746705_a_at) / RFU VCAN (11755009_s_at) / Fold change /veh VCAN (11755009_s_at) / RFU RHOB (11743442_s_at) / Fold change /veh RHOB (11743442_s_at) / RFU RGS16 (11720943_a_at) / Fold change /veh RGS16 (11720943_a_at) / RFU RGS16 (11720944_at) / Fold change /veh RGS16 (11720944_at) / RFU, VPS4B / Fold change vs veh, VPS4B / RFU, CREB1 / Fold change vs veh, CREB1 / RFU, DNAJC13 / Fold change vs veh, DNAJC13 / RFU, GNAQ / Fold change vs veh, GNAQ / RFU, CDK5R1 / Fold change vs veh, CDK5R1 / RFU, ZRANB3 / Fold change vs veh, ZRANB3 / RFU, CUL4A / Fold change vs veh, CUL4A / RFU, CCNY / Fold change vs veh, CCNY / RFU, UFL1 / Fold change vs veh, UFL1 / RFU, COG3 / Fold change vs veh, COG3 / RFU, DIAPH2 / Fold change vs veh, DIAPH2 / RFU, SKA2 / Fold change vs veh, SKA2 / RFU, AFF3 / Fold change vs veh, AFF3 / RFU, LMF1 / Fold change vs veh, LMF1 / RFU, IPO11 / Fold change vs veh, IPO11 / RFU, DFFB / Fold change vs veh, DFFB / RFU, FOXP1 / Fold change vs veh, FOXP1 / RFU, CARD8 / Fold change vs veh, CARD8 / RFU, STRN3 / Fold change vs veh, STRN3 / RFU, ADK / Fold change vs veh, ADK / RFU, RASSF2 / Fold change vs veh, RASSF2 / RFU, WIPF1 / Fold change vs veh, WIPF1 / RFU, LARP1B / Fold change vs veh, LARP1B / RFU, RASA1 / Fold change vs veh, RASA1 / RFU, RB1 / Fold change vs veh, RB1 / RFU, PPFIA1 / Fold change vs veh, PPFIA1 / RFU, MAT2A / Fold change vs veh, MAT2A / RFU, CCT5 / Fold change vs veh, CCT5 / RFU, WDR92 / Fold change vs veh, WDR92 / RFU, CUX1 / Fold change vs veh, CUX1 / RFU, TTC7A / Fold change vs veh, TTC7A / RFU, TMEM135 / Fold change vs veh, TMEM135 / RFU, DEPTOR / Fold change vs veh, DEPTOR / RFU, CPM / Fold change vs veh, CPM / RFU, DNAJB6 / Fold change vs veh, DNAJB6 / RFU, CACNA2D3 / Fold change vs veh, CACNA2D3 / RFU, DTX4 / Fold change vs veh, DTX4 / RFU, TFCP2 / Fold change vs veh, TFCP2 / RFU, GMCL1 /// GMCL1P1 / Fold change vs veh, GMCL1 /// GMCL1P1 / RFU, AEBP2 / Fold change vs veh, AEBP2 / RFU, SNHG1 /// SNORD22 /// SNORD25 /// SNORD26 /// SNORD27 /// SNORD28 /// SNORD29 /// SNORD31 / Fold change vs veh, SNHG1 /// SNORD22 /// SNORD25 /// SNORD26 /// SNORD27 /// SNORD28 /// SNORD29 /// SNORD31 / Fold change (Aza/veh), C12orf56 (ProbeSet 11735607_a_at) / Fold change (ACY-1035/veh), C12orf56 (ProbeSet 11735607_a_at) / Fold change (Aza/veh), FGFR1OP (ProbeSet 11751329_s_at) / Fold change (ACY-1035/veh), FGFR1OP (ProbeSet 11751329_s_at) / Fold change (Aza/veh), VPS36 (ProbeSet 11739960_a_at) / Fold change (ACY-1035/veh), VPS36 (ProbeSet 11739960_a_at) / RFU SYPL1 (11715823_x_at) / Fold change /veh SYPL1 (11715823_x_at) / RFU IGFBP7 (11715501_s_at) / Fold change /veh IGFBP7 (11715501_s_at) / RFU REEP3 (11722064_at) / Fold change /veh REEP3 (11722064_at) / RFU IGLL1 (11728026_x_at) / Fold change /veh IGLL1 (11728026_x_at): dose or concentration left out as unconfirmed
Conditions: MV-4-11 cells, 48 hours

Nc1ncn([C@@H]2O[C@H](CO)[C@@H](O)[C@H]2O)c(=O)n1 [azacitidine]
Fold change /veh GAP43 (11754022_s_at): 0.84
